According to paper PMC8699473, “An Easily Expandable Multi-Drug LC-MS Assay for the Simultaneous Quantification of 57 Oral Antitumor Drugs in Human Plasma” (Cancers, 2021):

Experiments:
[1] = Freeze-thaw stability in spiked pooled human plasma; format: physicochemical
[2] = Autosampler stability of ready for injection samples; format: physicochemical, human
[3] = parameters: method as in supplement references [1-55] as printed per drug; settings: minimum steady-state blood plasma concentration after multiple dose administration; ref supplement references [1-55] per drug; cited from earlier work

| Freeze-Thaw Accuracy [%] ([1]; validation standard 2xLLOV) | Freeze-Thaw Accuracy [%] ([1]; validation standard LLOV) | Freeze-Thaw Accuracy [%] ([1]; validation standard MOV) | Freeze-Thaw Accuracy [%] ([1]; validation standard ULOV) | SMILES | Autosampler (24h, 4°C) Accuracy [%] ([2]; validation standard 2xLLOV) | Autosampler (72h, 4°C) Accuracy [%] ([2]; validation standard 2xLLOV) | Autosampler (24h, 4°C) Accuracy [%] ([2]; validation standard LLOV) | Autosampler (72h, 4°C) Accuracy [%] ([2]; validation standard LLOV) | Autosampler (24h, 4°C) Accuracy [%] ([2]; validation standard MOV) | Autosampler (72h, 4°C) Accuracy [%] ([2]; validation standard MOV) | Autosampler (24h, 4°C) Accuracy [%] ([2]; validation standard ULOV) | Autosampler (72h, 4°C) Accuracy [%] ([2]; validation standard ULOV) | cmin [3] |
| --- | --- | --- | --- | --- | --- | --- | --- | --- | --- | --- | --- | --- | --- |
| 98.2% | 110.6% | 96.5% | 101.5% | CC[C@H](Nc1ncnc2[nH]cnc12)c1nc2cccc(F)c2c(=O)n1-c1ccccc1 [Idelalisib] | 103.2% | 98.6% | 109.4% | 109.4% | 102.6% | 97.1% | 103.9% | 101.4% | 318 ng/mL |
|  |  |  |  | CC(=O)c1c(C)c2cnc(Nc3ccc(N4CCNCC4)cn3)nc2n(C2CCCC2)c1=O [Palbociclib] | 99.9% | 100.1% | 99.4% | 97.9% | 101.0% | 96.9% | 103.9% | 102.9% |  |
